Laboratory results as given in publication PMC6458995, “MAP4K4 Inhibition Promotes Survival of Human Stem Cell-Derived Cardiomyocytes and Reduces Infarct Size In Vivo” (Cell Stem Cell, 2019).

Assays:
Test in all cases: Dundee kinase panel
HIPK1 = molecular target: T1, HIPK1 (Homo sapiens, UniProt Q86Z02); type: biochemical; conditions: for remaining activity at 1 µM: read-out: residual activity
T1 construct: lines 1-140) and Reaction Biology
Experimental: (§1) Compounds were screened at 1 μM. For key hits, pIC50 values were then determined by HTRF as above. […] Stability in mouse and human liver microsomes was determined by Cyprotex.

EPH-B2 = molecular target: T2, EPH-B2 (Homo sapiens, UniProt P29323); type: biochemical; conditions: for remaining activity at 1 µM: read-out: residual activity
T2 construct: lines 1-140) and Reaction Biology
T2 sequence (P29323 19-1055): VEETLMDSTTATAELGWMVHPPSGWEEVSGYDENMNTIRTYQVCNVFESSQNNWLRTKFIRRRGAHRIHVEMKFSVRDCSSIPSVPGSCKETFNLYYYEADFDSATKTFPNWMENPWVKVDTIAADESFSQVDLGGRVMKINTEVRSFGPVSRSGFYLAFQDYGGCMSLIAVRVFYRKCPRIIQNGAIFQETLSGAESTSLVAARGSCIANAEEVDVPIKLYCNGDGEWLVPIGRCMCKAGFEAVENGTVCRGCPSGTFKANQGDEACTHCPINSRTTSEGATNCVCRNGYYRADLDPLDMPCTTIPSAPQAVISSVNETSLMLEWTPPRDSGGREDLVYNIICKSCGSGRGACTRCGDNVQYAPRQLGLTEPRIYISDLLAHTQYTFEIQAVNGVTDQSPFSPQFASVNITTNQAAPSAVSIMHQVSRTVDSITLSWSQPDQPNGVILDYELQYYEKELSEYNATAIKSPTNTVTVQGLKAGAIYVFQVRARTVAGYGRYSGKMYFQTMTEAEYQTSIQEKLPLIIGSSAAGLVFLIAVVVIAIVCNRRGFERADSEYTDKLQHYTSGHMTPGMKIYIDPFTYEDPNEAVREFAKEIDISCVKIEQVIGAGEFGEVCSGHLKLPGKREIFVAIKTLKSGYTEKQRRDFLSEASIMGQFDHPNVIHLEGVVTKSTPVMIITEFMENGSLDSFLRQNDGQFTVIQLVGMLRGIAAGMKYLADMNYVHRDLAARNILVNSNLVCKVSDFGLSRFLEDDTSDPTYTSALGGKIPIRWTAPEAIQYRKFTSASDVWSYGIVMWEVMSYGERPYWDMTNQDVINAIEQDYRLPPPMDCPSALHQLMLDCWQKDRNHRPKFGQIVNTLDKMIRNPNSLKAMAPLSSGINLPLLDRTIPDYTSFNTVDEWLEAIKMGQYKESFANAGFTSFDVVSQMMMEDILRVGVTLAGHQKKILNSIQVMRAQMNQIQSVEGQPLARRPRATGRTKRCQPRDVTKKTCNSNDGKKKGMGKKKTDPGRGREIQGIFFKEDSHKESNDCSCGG
Experimental: as §1

DYRK1A = molecular target: T3, DYRK1A (Homo sapiens, UniProt Q13627); type: biochemical; conditions: for remaining activity at 1 µM: read-out: residual activity
T3 construct: lines 1-140) and Reaction Biology
Experimental: (§2) Kinase selectivity profiling was performed by the International Centre for Kinase Profiling, MRC Protein Phosphorylation and Ubiquitylation Unit (141 kinases; Premier Screen, http://www.kinase-screen.mrc.ac.uk), using a [γ-^33P]ATP filter binding assay ([Bain et al., 2007]). Compounds were screened at 1 μM. For key hits, pIC50 values were then determined by HTRF as above. More complete kinome profiling was performed by Reaction Biology (376 kinases). Stability in mouse and human liver microsomes was determined by Cyprotex.

TGFBR1 = molecular target: T4, TGFBR1 (Homo sapiens, UniProt P36897); type: biochemical; conditions: for remaining activity at 1 µM: read-out: residual activity
T4 construct: lines 1-140) and Reaction Biology
T4 sequence (P36897 34-503): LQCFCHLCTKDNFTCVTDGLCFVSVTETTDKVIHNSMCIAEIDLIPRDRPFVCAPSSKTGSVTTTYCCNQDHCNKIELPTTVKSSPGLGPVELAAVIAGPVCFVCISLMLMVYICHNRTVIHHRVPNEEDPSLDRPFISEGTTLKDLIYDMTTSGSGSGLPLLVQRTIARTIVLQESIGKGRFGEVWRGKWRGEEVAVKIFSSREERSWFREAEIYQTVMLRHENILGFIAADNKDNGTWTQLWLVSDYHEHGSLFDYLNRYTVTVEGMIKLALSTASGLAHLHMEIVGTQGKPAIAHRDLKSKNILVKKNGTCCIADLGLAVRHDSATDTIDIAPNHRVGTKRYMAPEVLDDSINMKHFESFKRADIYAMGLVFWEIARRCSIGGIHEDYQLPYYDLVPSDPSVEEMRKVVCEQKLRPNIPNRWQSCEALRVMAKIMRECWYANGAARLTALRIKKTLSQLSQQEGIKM
Experimental: as §2

ERK5 = molecular target: T5, ERK5 (Homo sapiens, UniProt Q13164); type: biochemical; conditions: for remaining activity at 1 µM: read-out: residual activity
T5 construct: lines 1-140) and Reaction Biology
T5 sequence (Q13164 whole entry): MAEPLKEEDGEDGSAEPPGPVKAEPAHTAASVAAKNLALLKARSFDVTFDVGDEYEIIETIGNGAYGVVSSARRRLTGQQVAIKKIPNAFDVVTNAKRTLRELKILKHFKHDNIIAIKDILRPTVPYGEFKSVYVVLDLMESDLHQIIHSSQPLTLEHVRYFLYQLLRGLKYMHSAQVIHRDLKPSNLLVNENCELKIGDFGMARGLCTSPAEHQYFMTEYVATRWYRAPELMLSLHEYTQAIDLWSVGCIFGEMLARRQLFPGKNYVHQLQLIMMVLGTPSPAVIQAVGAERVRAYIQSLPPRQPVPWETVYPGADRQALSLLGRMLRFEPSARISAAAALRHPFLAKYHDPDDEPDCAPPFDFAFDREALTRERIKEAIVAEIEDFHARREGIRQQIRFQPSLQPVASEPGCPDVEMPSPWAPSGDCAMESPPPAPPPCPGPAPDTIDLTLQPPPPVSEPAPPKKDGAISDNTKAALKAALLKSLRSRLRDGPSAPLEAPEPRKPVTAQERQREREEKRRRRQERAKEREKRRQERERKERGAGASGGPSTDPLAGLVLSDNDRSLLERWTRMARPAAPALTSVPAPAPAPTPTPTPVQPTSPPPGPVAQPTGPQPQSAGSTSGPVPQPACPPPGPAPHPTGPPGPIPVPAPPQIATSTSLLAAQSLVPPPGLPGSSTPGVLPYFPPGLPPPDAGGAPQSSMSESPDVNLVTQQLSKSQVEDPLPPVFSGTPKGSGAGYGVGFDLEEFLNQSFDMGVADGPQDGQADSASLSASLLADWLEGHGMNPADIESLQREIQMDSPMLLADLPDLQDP
Experimental: as §2

MARK1 = molecular target: T6, MARK1 (Homo sapiens, UniProt Q9P0L2); type: biochemical; conditions: for remaining activity at 1 µM: read-out: residual activity
T6 construct: lines 1-140) and Reaction Biology
T6 sequence (Q9P0L2 whole entry): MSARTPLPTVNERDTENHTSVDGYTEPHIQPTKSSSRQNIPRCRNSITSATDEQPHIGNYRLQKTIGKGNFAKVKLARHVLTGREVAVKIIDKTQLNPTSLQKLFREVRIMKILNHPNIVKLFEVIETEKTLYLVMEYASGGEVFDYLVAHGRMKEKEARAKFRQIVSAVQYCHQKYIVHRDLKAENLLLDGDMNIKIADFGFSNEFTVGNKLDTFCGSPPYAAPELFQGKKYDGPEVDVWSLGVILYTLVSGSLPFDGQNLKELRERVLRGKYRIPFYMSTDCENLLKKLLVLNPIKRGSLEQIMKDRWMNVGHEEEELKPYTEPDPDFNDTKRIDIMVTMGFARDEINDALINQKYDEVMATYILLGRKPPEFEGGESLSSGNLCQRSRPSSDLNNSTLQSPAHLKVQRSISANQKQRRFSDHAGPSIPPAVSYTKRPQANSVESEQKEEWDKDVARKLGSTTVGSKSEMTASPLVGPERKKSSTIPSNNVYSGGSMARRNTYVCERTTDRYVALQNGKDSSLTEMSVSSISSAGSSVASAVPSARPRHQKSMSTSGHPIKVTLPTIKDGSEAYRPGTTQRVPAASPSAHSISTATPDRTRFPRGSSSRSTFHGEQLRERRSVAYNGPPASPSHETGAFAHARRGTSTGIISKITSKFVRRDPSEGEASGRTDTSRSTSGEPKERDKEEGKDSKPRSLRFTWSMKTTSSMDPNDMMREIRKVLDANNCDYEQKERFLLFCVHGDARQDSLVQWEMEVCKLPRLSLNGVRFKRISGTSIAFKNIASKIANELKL
Experimental: as §2

MINK1 = molecular target: T7, MINK1 (Homo sapiens, UniProt Q8N4C8); type: biochemical; conditions: for remaining activity at 1 µM: read-out: residual activity
T7 construct: lines 1-140) and Reaction Biology
Experimental: as §2

MAP4K5 = molecular target: T8, MAP4K5 (Homo sapiens, UniProt Q9Y4K4); type: biochemical; conditions: for remaining activity at 1 µM: read-out: residual activity
T8 construct: lines 1-140) and Reaction Biology
T8 sequence (Q9Y4K4 whole entry): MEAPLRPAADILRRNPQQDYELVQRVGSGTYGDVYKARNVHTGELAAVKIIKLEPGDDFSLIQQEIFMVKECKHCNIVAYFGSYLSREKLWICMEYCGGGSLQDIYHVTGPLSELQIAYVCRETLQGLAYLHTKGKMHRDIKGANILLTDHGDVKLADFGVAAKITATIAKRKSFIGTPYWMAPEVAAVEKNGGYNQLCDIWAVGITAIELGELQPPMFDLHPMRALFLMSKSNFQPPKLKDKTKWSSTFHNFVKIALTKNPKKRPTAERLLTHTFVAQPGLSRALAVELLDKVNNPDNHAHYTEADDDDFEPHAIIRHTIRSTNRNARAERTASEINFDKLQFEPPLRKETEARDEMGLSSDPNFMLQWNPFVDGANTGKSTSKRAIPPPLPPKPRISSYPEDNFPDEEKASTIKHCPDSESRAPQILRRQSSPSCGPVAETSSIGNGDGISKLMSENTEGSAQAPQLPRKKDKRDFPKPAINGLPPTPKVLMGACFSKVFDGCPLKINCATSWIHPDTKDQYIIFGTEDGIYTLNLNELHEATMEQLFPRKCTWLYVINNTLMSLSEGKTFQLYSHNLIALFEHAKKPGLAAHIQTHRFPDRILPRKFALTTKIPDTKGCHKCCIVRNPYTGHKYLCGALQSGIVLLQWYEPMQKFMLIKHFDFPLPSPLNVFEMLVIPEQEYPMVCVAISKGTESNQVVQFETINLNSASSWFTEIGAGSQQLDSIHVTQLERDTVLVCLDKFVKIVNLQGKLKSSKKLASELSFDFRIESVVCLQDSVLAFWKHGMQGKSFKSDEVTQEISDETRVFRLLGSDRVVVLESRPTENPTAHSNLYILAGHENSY
Experimental: as §2

Src = molecular target: T9, Src (Homo sapiens, UniProt P12931); type: biochemical; conditions: for remaining activity at 1 µM: read-out: residual activity
T9 construct: lines 1-140) and Reaction Biology
T9 sequence (P12931 whole entry): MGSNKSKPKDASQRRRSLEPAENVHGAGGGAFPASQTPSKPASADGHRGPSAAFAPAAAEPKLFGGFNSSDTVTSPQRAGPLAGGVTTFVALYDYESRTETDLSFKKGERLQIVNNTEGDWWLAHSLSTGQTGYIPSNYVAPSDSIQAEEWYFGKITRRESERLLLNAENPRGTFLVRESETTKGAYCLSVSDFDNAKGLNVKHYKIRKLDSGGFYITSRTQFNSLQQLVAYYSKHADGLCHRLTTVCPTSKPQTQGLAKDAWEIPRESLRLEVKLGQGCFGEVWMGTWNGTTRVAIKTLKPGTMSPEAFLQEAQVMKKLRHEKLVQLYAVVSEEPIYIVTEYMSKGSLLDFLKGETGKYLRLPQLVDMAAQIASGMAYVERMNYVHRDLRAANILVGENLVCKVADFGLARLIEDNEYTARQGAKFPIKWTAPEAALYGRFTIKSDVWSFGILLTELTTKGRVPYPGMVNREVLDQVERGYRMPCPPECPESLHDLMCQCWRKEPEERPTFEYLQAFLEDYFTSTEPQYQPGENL
Experimental: as §2

PINK = type: biochemical, human; conditions: 1 μM
Experimental: as §2

T1 sequence (Q86Z02 whole entry): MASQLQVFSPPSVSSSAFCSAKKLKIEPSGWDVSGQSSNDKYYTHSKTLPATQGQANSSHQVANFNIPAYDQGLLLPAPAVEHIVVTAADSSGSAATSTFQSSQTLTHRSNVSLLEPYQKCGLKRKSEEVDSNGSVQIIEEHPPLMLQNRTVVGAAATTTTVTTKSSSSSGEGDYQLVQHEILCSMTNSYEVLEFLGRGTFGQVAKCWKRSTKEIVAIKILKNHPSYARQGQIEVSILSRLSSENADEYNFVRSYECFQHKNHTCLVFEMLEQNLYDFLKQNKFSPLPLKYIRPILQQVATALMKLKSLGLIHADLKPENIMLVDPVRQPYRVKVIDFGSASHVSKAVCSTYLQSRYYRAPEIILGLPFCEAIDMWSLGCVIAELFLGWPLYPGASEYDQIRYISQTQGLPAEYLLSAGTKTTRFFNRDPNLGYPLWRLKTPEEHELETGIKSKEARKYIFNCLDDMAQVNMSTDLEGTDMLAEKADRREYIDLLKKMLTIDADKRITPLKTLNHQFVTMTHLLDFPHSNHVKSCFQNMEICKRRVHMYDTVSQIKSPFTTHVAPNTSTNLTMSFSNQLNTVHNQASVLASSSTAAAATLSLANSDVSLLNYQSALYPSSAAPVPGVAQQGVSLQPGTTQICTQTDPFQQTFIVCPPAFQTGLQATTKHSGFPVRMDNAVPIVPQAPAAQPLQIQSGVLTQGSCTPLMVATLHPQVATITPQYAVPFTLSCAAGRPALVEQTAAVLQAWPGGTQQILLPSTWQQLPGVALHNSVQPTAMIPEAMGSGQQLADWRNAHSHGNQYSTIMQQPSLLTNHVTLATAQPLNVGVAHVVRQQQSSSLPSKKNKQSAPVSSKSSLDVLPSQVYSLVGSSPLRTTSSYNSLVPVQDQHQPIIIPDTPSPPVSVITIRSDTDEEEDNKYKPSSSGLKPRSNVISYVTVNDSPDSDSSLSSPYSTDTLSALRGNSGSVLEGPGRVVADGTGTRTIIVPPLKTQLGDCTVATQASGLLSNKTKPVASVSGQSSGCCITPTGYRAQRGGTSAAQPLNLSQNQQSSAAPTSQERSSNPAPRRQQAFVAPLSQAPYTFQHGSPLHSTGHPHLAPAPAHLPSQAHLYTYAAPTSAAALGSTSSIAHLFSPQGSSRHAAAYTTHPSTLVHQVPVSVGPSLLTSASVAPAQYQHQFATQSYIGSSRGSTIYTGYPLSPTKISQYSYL

O=C1Nc2ccc(I)cc2/C1=C/c1cc(Br)c(O)c(Br)c1 [GW5074]
remaining activity at 1 µM (HIPK1): 84% | remaining activity at 1 µM (EPH-B2): 94%

Oc1ncnc2c1c(-c1ccccc1)cn2-c1ccccc1 [F1386-0303, 5,7-diphenyl-7H-pyrrolo[2,3-d]pyrimidin-4-ol]
remaining activity at 1 µM (HIPK1): 54% | remaining activity at 1 µM (EPH-B2): 78% | remaining activity at 1 µM (DYRK1A): 108% | remaining activity at 1 µM (TGFBR1): 141% | remaining activity at 1 µM (ERK5): 93% | remaining activity at 1 µM (MARK1): 87% | remaining activity at 1 µM (MINK1): 11% | remaining activity at 1 µM (MAP4K5): 82% | remaining activity at 1 µM (Src): 118% | residual activity (PINK): 104%

O=C1Cc2c([nH]c3ccc(Br)cc23)-c2ccccc2N1 [Kenpaullone]
remaining activity at 1 µM (HIPK1): 102% | remaining activity at 1 µM (EPH-B2): 99%

COCCOc1ccc(-c2cn(-c3ccccc3)c3nc[nH]c(=O)c23)cc1 [DMX-5804, 5-[4-(2-methoxy-ethoxy)-phenyl]-7-phenyl-3,7-dihydro-pyrrolo[2,3-d]pyrimidin-4-one]
remaining activity at 1 µM (HIPK1): 109% | remaining activity at 1 µM (EPH-B2): 102% | remaining activity at 1 µM (DYRK1A): 110% | remaining activity at 1 µM (TGFBR1): 95% | remaining activity at 1 µM (ERK5): 115% | remaining activity at 1 µM (MARK1): 81% | remaining activity at 1 µM (MINK1): 2% | remaining activity at 1 µM (MAP4K5): 44% | remaining activity at 1 µM (Src): 92% | residual activity (PINK): 108%

Nc1ncc(C(=O)NC2CN(C(=O)C3CC3)C2)c2ccc(-c3cccc(F)c3)nc12 [GNE-495]
residual activity (HIPK1; 1 μM): 97% | residual activity (EPH-B2; 1 μM): 102% | residual activity (DYRK1A; 1 μM): 55% | residual activity (TGFBR1; 1 μM): 94% | residual activity (ERK5; 1 μM): 96% | residual activity (MARK1; 1 μM): 57% | residual activity (MINK1; 1 μM): 2% | residual activity (MAP4K5; 1 μM): 45% | residual activity (Src; 1 μM): 122% | residual activity (PINK): 104%
